From patent US9187497B2, “Substituted pyrido[3,2-e]pyrrolo[1,2-a]pyrazines as inhibitors of poly(ADP-ribose)polymerase (PARP)” (Takeda Phamaceutical Company Limited, priority 2009, dated 2015)
pIC50: −log10 of the molar value.

How the values were obtained:
[1] = molecular target: T1, PARP (Homo sapiens, UniProt P09874); assay: PARP ELISA colorimetric assay of inhibition of PARP catalytic activity (IC50); assay type: biochemical; conditions: pIC50=-log(IC50), IC50 in molar concentration; ELISA-based PARP kit, 10 minutes of catalysis
T1 construct: purchased Trevigen 4684-096-01 (enzyme); kit 4684-096-K HT
Method: Inhibition Constant (IC50) from PARP ELISA
Inhibition of PARP catalytic activity was determined by use of an ELISA-based colorimetric PARP/Apoptosis Assay kit (part number 4684-096-K HT, Trevigen). To each histone coated well in the 96-well plate supplied by the manufacturer (part number 4677-096-P) is added 39 μl of PARP buffer (part number 4671-096-02) and 1 μl of test compound dissolved in DMSO (diluted serially 3-fold 11 times). After mixing, 5 μl of 0.1 nM PARP (part number 4684-096-01) is added and the solution allowed to stand at ambient temperature for 10 minutes. PARP catalysis is initiated with the addition of 5 μl of 100 μM β-nicotinamide adenine dinucleotide (NAD+) (part number 4684-096-02) with activated DNA (part number 4671-096-06). After 10 minutes of catalysis the reaction is quenched by solvent aspiration followed by irrigation of the assay wells 4 times with phosphate buffered saline (PBS) containing 0.1% t-Octylphenoxypolyethoxyethanol (Triton® X-100). Mouse Anti-poly ADP ribose (PAR) monoclonal antibody, goat antimouse immunoglobulin G (IgG)-horse radish peroxidase (HRP) conjugate and HRP substrate are added according to the manufacture's specifications to generate a colorimetric signal proportional to PARP catalytic activity. An IC50 for the test compound is calculated from the equation Absorbance=(Amax−background)/(1+([cmpd]/IC50)^n)+background fit to the 12 point test compound concentration gradient via nonlinear least squares.

[2] = test system: Jurkat cell line; assay: PARP cellular chemopotentiation assay (MTS cell viability with and without TMZ); assay type: cell-based; conditions: ratio of EC50 for inhibition of cell viability without and with 100 μM TMZ; Jurkat cells, 96 hours of treatment
Method: Potentiation Factor (PF50) Determination from PARP Cellular Chemopotentiation Assay
Jurkat cell line was maintained according to the supplier (American Type Culture Collection (Rockville, Md.)). Cells were seeded in 96-well tissue culture microplates at 10,000 cells per well and cultured for 24 hours prior to addition of compounds, TMZ (Temozolomide) or DMSO (dimethylsulfoxide) vehicle. After 96 hours of treatment, the conversion of MTS ([3-(4,5-dimethylthiazol-2-yl)-5-(3-carboxymethoxyphenyl)-2-(4-sulfophenyl)-2H-tetrazolium, inner salt], Promega, Madison, Wis.) by metabolically active cells was determined through measuring the OD490 nm with a Spectramax microplate reader (Molecular Devices, San Diego, Calif.). To generate concentration-response curves, cells were treated in duplicate with a range of serial compound dilutions (final DMSO concentration was 0.5%) in the absence or presence of 100 μM TMZ chemoreagent. The percentage of viable cells per well was calculated by correction for background and normalizing against DMSO-treated cells. EC50 values for inhibition of cell viability were calculated using XLfit4 MicroSoft Excel curve-fitting software. Chemopotentiation factor PF50 was calculated as the ratio of EC50 values of cells co-treated without and with TMZ, respectively.

T1 sequence (P09874 whole entry): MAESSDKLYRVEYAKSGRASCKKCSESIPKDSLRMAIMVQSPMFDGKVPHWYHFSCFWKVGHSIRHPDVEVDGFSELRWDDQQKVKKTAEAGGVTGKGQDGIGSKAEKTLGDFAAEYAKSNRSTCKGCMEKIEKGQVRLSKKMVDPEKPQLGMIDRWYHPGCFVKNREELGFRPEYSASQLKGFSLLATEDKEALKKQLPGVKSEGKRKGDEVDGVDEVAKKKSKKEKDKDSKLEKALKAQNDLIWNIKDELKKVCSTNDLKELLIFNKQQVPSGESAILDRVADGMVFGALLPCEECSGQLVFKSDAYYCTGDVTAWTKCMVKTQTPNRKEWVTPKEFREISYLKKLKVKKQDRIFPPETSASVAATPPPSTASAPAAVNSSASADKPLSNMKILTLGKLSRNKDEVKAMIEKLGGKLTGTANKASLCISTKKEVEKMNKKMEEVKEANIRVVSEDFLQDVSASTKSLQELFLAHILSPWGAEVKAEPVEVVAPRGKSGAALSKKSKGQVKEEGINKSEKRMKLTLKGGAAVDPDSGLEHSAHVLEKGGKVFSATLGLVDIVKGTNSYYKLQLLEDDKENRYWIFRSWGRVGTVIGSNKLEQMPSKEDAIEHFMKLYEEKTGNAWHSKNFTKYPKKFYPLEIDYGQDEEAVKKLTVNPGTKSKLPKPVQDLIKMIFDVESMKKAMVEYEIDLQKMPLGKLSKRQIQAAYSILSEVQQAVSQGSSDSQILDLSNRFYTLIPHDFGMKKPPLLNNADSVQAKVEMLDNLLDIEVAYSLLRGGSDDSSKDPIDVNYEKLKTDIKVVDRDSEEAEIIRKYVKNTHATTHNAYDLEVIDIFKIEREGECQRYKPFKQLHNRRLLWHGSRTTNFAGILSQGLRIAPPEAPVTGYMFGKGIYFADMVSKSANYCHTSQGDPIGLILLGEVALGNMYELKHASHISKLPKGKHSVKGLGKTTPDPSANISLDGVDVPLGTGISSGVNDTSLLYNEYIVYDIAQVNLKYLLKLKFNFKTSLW

Row | SMILES | pIC50 [1] | PF50 [2]
1 | CNC(=O)c1ccc(N2CCN(Cc3cnc4c(c3)NC(=O)[C@@H]3CCCN43)CC2)nc1 [Compound 6, (S)—N-methyl-6-(4-((6-oxo-5,6,6a,7,8,9-hexahydropyrido[3,2-e]pyrrolo[1,2-a]pyrazin-3-yl)methyl)piperazin-1-yl)nicotinamide] | ≥ 7.90 | >10
2 | CNC(=O)c1ccc(N2CCN(Cc3cnc4c(c3)NC(=O)[C@@H]3CCCN43)CC2)cc1 [Compound 11, (S)—N-methyl-4-(4-((6-oxo-5,6,6a,7,8,9-hexahydropyrido[3,2-e]pyrrolo[1,2-a]pyrazin-3-yl)methyl)piperazin-1-yl)benzamide] | 7.40 to 7.80 | >10
3 | CC(C)NC(=O)c1ccc(N2CCN(Cc3cnc4c(c3)NC(=O)[C@@H]3CCCN43)CC2)cc1 [Compound 12, (S)—N-isopropyl-4-(4-((6-oxo-5,6,6a,7,8,9-hexahydropyrido[3,2-e]pyrrolo[1,2-a]pyrazin-3-yl)methyl)piperazin-1-yl)benzamide] | 7.40 to 7.80 | >10
4 | O=C1Nc2cc(CN3CCN(c4ccc(F)cc4)CC3)cnc2N2CCC[C@@H]12 [Compound 24, (S)-3-((4-(4-fluorophenyl)piperazin-1-yl)methyl)-6a,7,8,9-tetrahydropyrido[3,2-e]pyrrolo[1,2-a]pyrazin-6(5H)-one] | 7.40 to 7.80 | >5000
5 | Cc1cccc(N2CCN(Cc3cnc4c(c3)NC(=O)[C@@H]3CCCN43)CC2)c1 [Compound 29, (S)-3-((4-m-tolylpiperazin-1-yl)methyl)-6a,7,8,9-tetrahydropyrido[3,2-e]pyrrolo[1,2-a]pyrazin-6(5H)-one] | ≤ 7.30 | >500
6 | O=C1Nc2cc(CN3CCN(c4ccc(Br)cc4)CC3)cnc2N2CCC[C@@H]12 [Compound 37, (S)-3-((4-(4-bromophenyl)piperazin-1-yl)methyl)-6a,7,8,9-tetrahydropyrido[3,2-e]pyrrolo[1,2-a]pyrazin-6(5H)-one] | ≤ 7.30 | >2000
7 | O=C1Nc2cc(CN3CCN(c4ccc(Cl)cn4)CC3)cnc2N2CCC[C@@H]12 [Compound 42, (S)-3-((4-(5-chloropyridin-2-yl)piperazin-1-yl)methyl)-6a,7,8,9-tetrahydropyrido[3,2-e]pyrrolo[1,2-a]pyrazin-6(5H)-one] | ≤ 7.30 | >500
8 | COC(=O)c1ccc(N2CCN(Cc3cnc4c(c3)NC(=O)[C@@H]3CCCN43)CC2)cc1 [Compound 45, (S)-methyl 4-(4-((6-oxo-5,6,6a,7,8,9-hexahydropyrido[3,2-e]pyrrolo[1,2-a]pyrazin-3-yl)methyl)piperazin-1-yl)benzoate] | 7.40 to 7.80 | >10
9 | O=C1Nc2cc(CN3CCN(c4ccc(Cl)c(F)c4)CC3)cnc2N2CCC[C@@H]12 [Compound 47, (S)-3-((4-(4-chloro-3-fluorophenyl)piperazin-1-yl)methyl)-6a,7,8,9-tetrahydropyrido[3,2-e]pyrrolo[1,2-a]pyrazin-6(5H)-one] | ≤ 7.30 | >10
10 | O=C1Nc2cc(CN3CC=C(c4ccc(Cl)cc4)CC3)cnc2N2CCCC[C@@H]12 [Compound 68, (S)-3-((4-(4-chlorophenyl)-5,6-dihydropyridin-1(2H)-yl)methyl)-7,8,9,10-tetrahydro-5H-dipyrido[1,2-a:3′,2′-e]pyrazin-6(6aH)-one] | ≥ 7.90 | >5000
11 | O=C1Nc2cc(CN3CCN(c4ccc(Cl)cc4)CC3)cnc2N2CCCC[C@@H]12 [Compound 69, (S)-3-((4-(4-chlorophenyl)piperazin-1-yl)methyl)-7,8,9,10-tetrahydro-5H-dipyrido[1,2-a:3′,2′-e]pyrazin-6(6aH)-one] | ≥ 7.90 | >10
12 | COc1ncccc1-c1ccc(N2CCN(Cc3cnc4c(c3)NC(=O)[C@@H]3CCCCN43)CC2)cc1 [Compound 169, (S)-3-((4-(4-(2-methoxypyridin-3-yl)phenyl)piperazin-1-yl)methyl)-7,8,9,10-tetrahydro-5H-dipyrido[1,2-a:3′,2′-e]pyrazin-6(6aH)-one] | ≤ 7.30 | 
